For series [1] the following is noted: cited from earlier work.
Series [2] concerns the target T1, SIRT1 (Homo sapiens, UniProt Q96EB6).
T1 sequence (Q96EB6 1-747): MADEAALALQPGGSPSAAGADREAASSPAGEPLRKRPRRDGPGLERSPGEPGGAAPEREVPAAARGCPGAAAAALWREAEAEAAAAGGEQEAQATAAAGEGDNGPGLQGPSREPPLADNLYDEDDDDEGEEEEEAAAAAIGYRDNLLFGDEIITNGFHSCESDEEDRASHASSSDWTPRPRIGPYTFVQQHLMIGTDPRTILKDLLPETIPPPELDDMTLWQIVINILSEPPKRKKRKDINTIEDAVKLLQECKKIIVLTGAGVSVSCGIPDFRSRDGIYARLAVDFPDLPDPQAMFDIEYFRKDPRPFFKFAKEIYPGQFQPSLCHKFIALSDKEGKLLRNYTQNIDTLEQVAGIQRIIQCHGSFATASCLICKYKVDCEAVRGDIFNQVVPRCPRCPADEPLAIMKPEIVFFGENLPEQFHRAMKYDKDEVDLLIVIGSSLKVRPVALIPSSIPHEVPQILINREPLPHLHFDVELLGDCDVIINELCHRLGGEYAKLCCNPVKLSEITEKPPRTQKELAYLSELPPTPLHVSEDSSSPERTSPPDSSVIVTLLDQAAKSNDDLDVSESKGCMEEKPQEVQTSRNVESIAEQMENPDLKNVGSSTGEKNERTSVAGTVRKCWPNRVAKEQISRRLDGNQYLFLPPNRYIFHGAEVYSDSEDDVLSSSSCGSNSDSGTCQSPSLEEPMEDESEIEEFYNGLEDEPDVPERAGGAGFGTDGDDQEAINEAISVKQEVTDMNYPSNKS
Nature of the series: Fluor-de-Lys biochemical sirtuin deacetylation assay, SIRT1 counter-screen. The note with it: for SIRT1 inhibition: 10 μM counter-screen. On the procedure: (§1) To evaluate the potency and selectivity of the synthesized compounds robust, sensitive, and quantitative, biochemical sirtuin deacetylation assays were employed. (SIRT2 then SIRT1 and SIRT3 for selectivity). Sirtuin activity was assessed using the Fluor-de-Lys assay with recombinant active enzymes SIRT1, SIRT2, and the catalytically active fragment of SIRT3, as described in the literature. […] AK-1 was included as the reference compound with each assay. […] Those compounds also were subjected to SIRT1 and SIRT3 assays to determine sirtuin selectivity.
(§2) As discussed above, Tables 1-10 are presented and followed by details relating to the synthesis and characterization of compounds prepared. Inhibition assays and related testing of such compounds are conducted according to well-known literature protocols including those found in Silverman, et al., Biorg. Med. Chem. Lett. 22 (2012) 2789-2793 and the references cited therein, such references and tests incorporated herein by reference.
Background: Counterscreens check selectivity or assay interference.

Series [3] concerns the target T2, catalytically active fragment of SIRT3 (Homo sapiens, UniProt Q9NTG7).
T2 construct: the catalytically active fragment of SIRT3
T2 sequence (Q9NTG7 118-380 limits assumed): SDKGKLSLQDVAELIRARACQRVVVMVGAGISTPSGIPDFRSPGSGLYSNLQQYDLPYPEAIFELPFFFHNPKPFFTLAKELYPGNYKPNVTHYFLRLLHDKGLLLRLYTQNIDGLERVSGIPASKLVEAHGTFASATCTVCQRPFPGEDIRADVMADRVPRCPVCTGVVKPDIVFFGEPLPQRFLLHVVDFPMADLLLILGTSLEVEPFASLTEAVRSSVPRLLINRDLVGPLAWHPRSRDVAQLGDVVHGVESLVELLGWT
Nature of the series: Fluor-de-Lys biochemical sirtuin deacetylation assay, SIRT3 counter-screen. The note with it: 10 μM counter-screen. The procedure:
as §1, §2

Series [4] in a line: Microsomal stability screen, human. The note with it: 1 μM.
Series [5] concerns α-tubulin K40 acetylation (SIRT2 substrate) in N2a cells. Nature of the series: α-tubulin K40 acetylation (Western) in neuronal N2a cells. Type of series: cell-based. The note with it: N2a cells, 10, 25, 50 μM, 6 h. The procedure:
FIGS. 2A-B. Cell-based assay for evaluating the bioactivity of SIRT2 inhibitors. A) Extracts from neuronal N2a cells treated with 61 and 64 for 6 h were resolved on SDS-PAGE and analyzed by Western analysis using antibodies specific to acetylated α-tubulin, and normalized to GADPH and total α-tubulin (not shown) levels.
To assess SIRT2 inhibition activity in cells, an increase in α-tubulin K40 acetylation (α-tubulin is a substrate for SIRT2) in neuronal N2a and in wild type and HD ST141 cell lines was measured. In this bioactivity test, extracts from compound-treated cells were resolved on SDS-PAGE and subjected to Western analysis using primary antibodies specific to K40 acetylated α-tubulin. Trichostatin A (TSA), a potent HDAC inhibitor, was used as a positive control. To normalize the levels of acetylated α-tubulin we used total α-tubulin and GADPH proteins, detected by Western reactive antibodies specific to total α-tubulin and GADPH. […] FIGS. 2A-B show the bioactivity of 61 and 64 in N2a cells at three tested concentrations (10, 25, and 50 μM). Toxicity of the compounds was monitored in both cell lines, and most of them were non-toxic up to 50 μM in a 6 h treatment.

Series [6] in a line: Microsomal stability screen, mouse. The note with it: 1 μM.
Series [7] in a line: PBS Express solubility. The note with it: aqueous buffer, kinetic from dmso stock.
The target in series [8] is T3, SIRT2 (Homo sapiens, UniProt Q8IXJ6).
T3 construct: recombinant active enzymes SIRT1, SIRT2, and the catalytically active fragment of SIRT3
T3 sequence (Q8IXJ6 1-389): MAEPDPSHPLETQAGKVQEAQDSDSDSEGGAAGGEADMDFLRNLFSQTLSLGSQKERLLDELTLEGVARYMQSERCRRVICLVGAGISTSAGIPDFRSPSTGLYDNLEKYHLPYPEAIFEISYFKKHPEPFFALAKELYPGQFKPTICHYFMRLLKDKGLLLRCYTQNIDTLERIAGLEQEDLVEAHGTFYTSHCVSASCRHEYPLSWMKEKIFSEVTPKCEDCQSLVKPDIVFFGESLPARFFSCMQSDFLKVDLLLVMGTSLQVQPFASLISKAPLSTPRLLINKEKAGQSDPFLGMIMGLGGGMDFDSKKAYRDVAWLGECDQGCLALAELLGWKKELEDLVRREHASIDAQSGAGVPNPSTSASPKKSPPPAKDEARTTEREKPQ
In words: Fluor-de-Lys biochemical sirtuin deacetylation assay, SIRT2. The note with it: for inhibition at 10 µM: sulfone, sulfoxide, thioether derivatives of C2-8 scaffold.

A short description of series [9]: Plasma half life.
The nature of series [10]: Microsomal intrinsic clearance, mouse. The note with it: for microsomal CLint at 1 μM / half-life at 1 μM: mouse, microsomes.
Series [11] is described as follows: Microsomal intrinsic clearance, human. The note with it: for microsomal CLint at 1 μM / half-life at 1 μM: human, microsomes.

Molecules are shown by their SMILES. Values after ≈ are worked out from the molar mass of the structure shown.

Regarding `O=C(Nc1cccc([N+](=O)[O-])c1)c1cccc(S(=O)(=O)N2CCCCCC2)c1` [AK-1], the aqueous solubility result in series [1] is “low aqueous solubility”.
Turning to `O=C(Nc1cccc(Br)c1)c1cccc(S(=O)(=O)N2CCCCCC2)c1` [AK-7], the aqueous solubility result in series [1] is given as “low aqueous solubility”.
Molecule `O=C(Nc1nccs1)c1cccc(S(=O)(=O)Nc2ccc(Cl)cc2)c1` [Compound 31, 3-(N-(4-chlorophenyl)sulfamoyl)-N-(thiazol-2-yl)benzamide] registered an inhibition at 10 µM in [2] (10 μM) of 65%. Besides, the “SIRT3 inhibition” value in series [3] is “totally inactive”.
As to `O=C(Nc1ccc(Cl)cn1)c1cccc(S(=O)(=O)Nc2ccc(Cl)cn2)c1` [Compound 41, N-(5-chloropyridin-2-yl)-3-(N-(5-chloropyridin-2-yl)sulfamoyl)benzamide], the “SIRT3 inhibition” value in [3] was “minimal SIRT3 inhibition”.
Consider `CN(c1ccc(F)cc1)S(=O)(=O)c1cccc(C(=O)Nc2ccc(Cl)cn2)c1` [Compound 43, N-(5-chloropyridin-2-yl)-3-(N-(4-fluorophenyl)-N-methylsulfamoyl)benzamide], for which, in [2], the “SIRT1 inhibition” value was “minimal SIRT1 inhibition”.
Same read-out and setting: then `CN(c1ccc(Cl)cc1)S(=O)(=O)c1cccc(C(=O)Nc2ccc(C(F)(F)F)cn2)c1` [Compound 56, 3-(N-(4-chlorophenyl)-N-methylsulfamoyl)-N-(5-(trifluoromethyl)pyridin-2-yl)benzamide], with “minimal SIRT1 inhibition”.
Regarding `CN(c1ccc(Cl)cc1)S(=O)(=O)c1cccc(C(=O)Nc2ccc(O)cn2)c1` [Compound 58, 3-(N-(4-chlorophenyl)-N-methylsulfamoyl)-N-(5-hydroxypyridin-2-yl)benzamide], the “SIRT3 inhibition” value in series [3] is listed as “minimal SIRT3 inhibition”.
With `CN(c1ccc(Cl)cc1)S(=O)(=O)c1cccc(C(=O)Nc2ccc(S(C)(=O)=O)cc2)c1` [Compound 61, 3-(N-(4-Chlorophenyl)-N-methylsulfamoyl)-N-(4-(methylsulfonyl)phenyl)benzamide], the “Mean remaining parent NADPH-free (%)” value was 112% in series [4] and 100% in [6]. For the same molecule, the “Mean remaining parent with NADPH (%)” value in series [4] is 2%; in series [6] it was 4%. Also, in [5], the “increase in α-tubulin K40 acetylation” value is reported as “dose-dependent increase”.
For `CN(c1ccc(Cl)cc1)S(=O)(=O)c1cccc(C(=O)Nc2ccc(C#N)cc2)c1` [Compound 64, 3-(N-(4-Chlorophenyl)-N-methylsulfamoyl)-N-(4-cyanophenyl)benzamide], in series [5], the “increase in α-tubulin K40 acetylation” value was “dose-dependent increase”.
For `CC(=O)c1ccc(N(C)S(=O)(=O)c2cccc(C(=O)Nc3ccc(Cl)cn3)c2)cc1` [Compound 103, 3-(N-(4-Acetylphenyl)-N-methylsulfamoyl)-N-(5-chloropyridin-2-yl)benzamide], in [4], the “Mean remaining parent NADPH-free (%)” value is on record as 82% and the “Mean remaining parent with NADPH (%)” value turned out to be 12%. In addition, in series [6], the “Mean remaining parent NADPH-free (%)” value came out at 91% and the “Mean remaining parent with NADPH (%)” value is recorded as 0%.
In the case of `CC(=O)c1ccc(N(C)S(=O)(=O)c2cccc(C(=O)Nc3ccc(C#N)cc3)c2)cc1` [Compound 106, 3-(N-(4-Acetylphenyl)-N-methylsulfamoyl)-N-(4-cyanophenyl)benzamide], the “SIRT1 inhibition” value in series [2] is “minimal SIRT1 inhibition”. In series [3], the “SIRT3 inhibition” value is “minimal SIRT3 inhibition”.
For `N#Cc1ccc(NC(=O)c2cccc(S(=O)(=O)Cc3ccc(Cl)cc3)c2)cc1` [Compound 174, 3-((4-Chlorobenzyl)sulfonyl)-N-(4-cyanophenyl)benzamide], in series [4], the “Mean remaining parent NADPH-free (%)” value came out at 93% and the “Mean remaining parent with NADPH (%)” value was found to be 89%. In [7], this molecule returned a solubility at 45 min of 62.5 µM (≈ 25.7 µg/mL) and a solubility at 16 h of 62.5 µM (≈ 25.7 µg/mL). This molecule also showed an inhibition at 10 µM in series [8] of 40%. In series [8] (SIRT2 assay (61 also cell-based tubulin deacetylation assay)), the “potency compared with 59” value is “more potent than 59”. Besides, the “SIRT2 inhibition potency compared with AK-1” value in [8] (dose-response, five doses, side-by-side with AK-1) is given as “equal or just slightly better potency”. In addition, in series [6], the “Mean remaining parent NADPH-free (%)” value is reported as 100% and the “Mean remaining parent with NADPH (%)” value came out at 68%.
As to `C[S+]([O-])c1ccc(NC(=O)c2cccc(SCc3ccc(Cl)cc3)c2)cc1` (stereo not shown) [Compound 182, 3-((4-chlorobenzyl)thio)-N-(4-(methylsulfinyl)phenyl)benzamide], the “Fraction remaining, last time point (%)” value in [9] (Mouse plasma, 5 μM) came out at 62%. Also, the half-life at 5 μM in [9] (mouse, plasma) was 89 min. Also, the “% remaining 60 min” value in series [10] (1 μM, 60 min) came out at 0.8%; in [11] (1 μM, 60 min), 5.3%. For the same molecule, the microsomal CLint at 1 μM in series [10] (NADPH-dependent CLint) came to 445 µL/min/mg; in [10] (NADPH-free CLint), 58 µL/min/mg; in [11] (NADPH-dependent CLint) it was 241 µL/min/mg; in [11] (NADPH-free CLint) it was 39 µL/min/mg. For the same molecule, the half-life at 1 μM is 5.2 min in [10] (NADPH-dependent T1/2 (min)), 40 min in series [10] (NADPH-free T1/2 (min)), 9.6 min in series [11] (NADPH-dependent T1/2 (min)) and 59 min in series [11] (NADPH-free T1/2 (min)). Besides, the concentration in solution in series [7] (solubility at 45 min) was 15.6 µM (≈ 6.49 µg/mL). This molecule displayed a solubility at 16 h in [7] of 15.6 µM (≈ 6.49 µg/mL). In [8], this molecule gave an inhibition at 10 µM of 60%.
As for `CC(C)[N+](C)(CCOC(=O)C1c2ccccc2Oc2ccccc21)C(C)C` [Propantheline, reference compound], in series [9] (Mouse plasma, 5 μM), the “Fraction remaining, last time point (%)” value was 3.4% and the “Plasma T1/2” value is 18 min.

The term inhibition denotes the drop in the measured response relative to a control, in per cent. Higher therefore signals strong suppression. As usually defined, the solubility is how much of the substance goes into solution per volume. A lower solubility goes with a poorly soluble substance. As a reminder, the half-life is the time needed for the level to fall by half in the phase considered. By microsomal CLint is commonly meant the capacity of the preparation to metabolise the compound, expressed as a volume cleared per time. The low end stands for greater metabolic stability, the high end for faster metabolism.

(Values after patent US9890117B2, “Benzamide compounds and related methods of use” (Northwestern University, priority 2012, dated 2018).)
